# In patent US20200383983A1, “CGRP ANTAGONISTS FOR THE TREATMENT OF MEDICATION OVERUSE HEADACHE, POST-TRAUMATIC HEADACHE, POST-CONCUSSION SYNDROME AND VERTIGO” (Allergan Sales, LLC, priority 2019, published 2020):
# B1: erenumab (antibody, chains of the INN, looked up, V domains shown)
# VH: QVQLVESGGGVVQPGRSLRLSCAASGFTFSSFGMHWVRQAPGKGLEWVAVISFDGSIKYSVDSVKGRFTISRDNSKNTLFLQMNSLRAEDTAVYYCARDRLNYYDSSGYYHYKYYGMAVWGQGTTVTVSS
# VL: QSVLTQPPSVSAAPGQKVTISCSGSSSNIGNNYVSWYQQLPGTAPKLLIYDNNKRPSGIPDRFSGSKSGTSTTLGITGLQTGDEADYYCGTWDSRLSAVVFGGGTKLTVL
# Legend:
# [1] = stated generally, small molecules compared with monoclonal antibodies; cited from earlier work
# [2] = Case scenario: patient with post-traumatic headache (PTH), subjective pain rating; assay type: in vivo, human; conditions: for pain rating at worst, subjective rating scale of zero (no pain) to 10 (worst pain): before treatment 10; for pain rating at best, subjective rating scale of zero (no pain) to 10 (worst pain): before treatment eight; for pain rating on average, subjective rating scale of zero (no pain) to 10 (worst pain): before treatment nine
# Source text: (§1) The following non-limiting examples provide those of ordinary skill in the art with possible case scenarios and specific methods to treat conditions within the scope of the present disclosure and are not intended to limit the scope of the disclosure.
# A person complains of right-sided frontal headaches. The patient stated the headaches began 3 months ago after accidentally being hit in the face at the right frontal, maxillary, and zygomatic bones with a heavy instrument. They deny any loss of consciousness at the time of the incident and describes the pain as a “constant achy” to “stabbing” pain primarily over the right eye and right zygomatic bone. They complain of intermittent blurred vision when the pain becomes “stabbing.” They also complain of intermittent tinnitus. On a subjective rating scale of zero (no pain) to 10 (worst pain), the patient rates their pain as eight at best, nine on average, and 10 at worst. Results from a radiographic scan of the skull, CT scan of the brain, and MRI scan of the brain and cervical spine are normal. Results from slit lamp and neurologic testing are also normal. The patient is diagnosed to have PTH. The patient can be treated with ubrogepant at a dose of 100 mg, once a day. The treatment with ubrogepant can reduce the pain experienced by the patient and the patient can rate their pain as five at best, six on average, and nine at worst.
# A person complains of right-sided frontal headaches. The patient stated the headaches began 3 months ago after accidentally being hit in the face at the right frontal, maxillary, and zygomatic bones with a heavy instrument. They deny any loss of consciousness at the time of the incident and describes the pain as a “constant achy” to “stabbing” pain primarily over the right eye and right zygomatic bone. They complain of intermittent blurred vision when the pain becomes “stabbing.” They also complain of intermittent tinnitus. On a subjective rating scale of zero (no pain) to 10 (worst pain), the patient rates their pain as eight at best, nine on average, and 10 at worst. Results from a radiographic scan of the skull, CT scan of the brain, and MRI scan of the brain and cervical spine are normal. Results from slit lamp and neurologic testing are also normal. The patient is diagnosed to have PTH. The patient can be treated with erenumab at a dose of 70 mg by subcutaneous administration. A month after the erenumab administration, the patient can rate their pain as five at best, six on average, and nine at worst.
# [3] = Case scenario: patient with chronic migraine and medication overuse headache, weaning off Fiorinal; assay type: in vivo, human
# Source text: as §1
# […] This responded well to Excedrin at that time. As they became older their headaches became more frequent and by the time they were in their late 20's they had headache on more than half the days of the month. Excedrin was no longer effective, and their primary care physician prescribed Fiorinal (aspirin, caffeine and barbiturate compound). […] […] Their primary care physician, on routine blood work noted: worsening renal and liver function tests. The patient reported depression and disability related to their headache disorder. They could not work or participate in family events. They were referred to a neurologist who specialized in headache disorders. They diagnosed them with episodic migraine without aura that had transformed to chronic migraine with associated medication overuse headache. They also diagnosed end organ damage with hepatic and renal damage secondary to analgesic overuse. They recommended a preventive treatment and that they taper off of Fiorinal. The patient started Topiramate as a migraine preventive and despite their best efforts they were unable to wean off of Fiorinal, due to breakthrough headache. They returned to the Neurologist and they prescribed Ubrogepant 50 mg daily for 10 days. […] They continued Topiramate treatment and used Ubrogepant 50 mg a day as needed for breakthrough headache. […] They were able to return to work and to participate in family events.
# [4] = Case scenario: patient with migraine without aura and medication overuse headache (triptan overuse); assay type: in vivo, human; conditions: 50 mg once a day, patient averaging 25 doses of oral triptan per month
# Source text: as §1
# A person visits a headache clinic with almost daily migraine attacks. Their migraines have been ongoing since they were […]. […] Eventually, however, the migraine attacks became longer, lasting up to 3 or 4 days and forcing them to take 4 or 5 doses of triptan per attack. Currently, they are averaging 25 doses of oral triptan per month. They are diagnosed with migraine without aura and medication overuse headache. They are treated with ubrogepant at a dose of 50 mg, once a day.
# [5] = 70 mg subcutaneous, a month after administration
molecule,measurement,setting,value
C[C@@H]1[C@H](c2c(F)ccc(F)c2F)C[C@H](NC(=O)c2cnc3c(c2)C[C@@]2(C3)C(=O)Nc3ncccc32)C(=O)N1CC(F)(F)F [atogepant],half-life,[1],measured in hours
C[C@@H]1[C@H](c2ccccc2)C[C@H](NC(=O)c2cnc3c(c2)C[C@@]2(C3)C(=O)Nc3ncccc32)C(=O)N1CC(F)(F)F [ubrogepant],"pain rating at worst, subjective rating scale of zero (no pain) to 10 (worst pain)",[2]; 100 mg once a day,nine
same,"pain rating at best, subjective rating scale of zero (no pain) to 10 (worst pain)",[2]; 100 mg once a day,five
same,"pain rating on average, subjective rating scale of zero (no pain) to 10 (worst pain)",[2]; 100 mg once a day,six
same,need of as-needed use for breakthrough headache,"[3]; 50 mg a day as needed, after 3 months",once or twice a month
same,effect on migraine attacks and recurrence,"[3]; 50 mg a day as needed, continued Topiramate",effectively ended their migraine attacks and they had no recurrence requiring re-treatment
same,need of as-needed use for breakthrough headache,"[3]; 50 mg a day as needed, first month after weaning off Fiorinal",twice a week
same,weaning off the overused medication (Fiorinal),"[3]; 50 mg daily for 10 days, with Topiramate as preventive",able to successfully wean off of Fiorinal
same,intensity and frequency of migraine,[4],can reduce the intensity and frequency of migraine
same,half-life,[1],measured in hours
N[C@@H]1c2cccnc2[C@H](OC(=O)N2CCC(n3c(=O)[nH]c4ncccc43)CC2)CC[C@H]1c1cccc(F)c1F [rimegepant],half-life,[1],measured in hours
B1,"pain rating at worst, subjective rating scale of zero (no pain) to 10 (worst pain)",[2]; [5],nine
same,"pain rating at best, subjective rating scale of zero (no pain) to 10 (worst pain)",[2]; [5],five
same,"pain rating on average, subjective rating scale of zero (no pain) to 10 (worst pain)",[2]; [5],six
